13 molecules from PubChem BioAssay (NCI) can be followed below.

Some test systems named below: 786-0 renal; SF-539 CNS; RPMI-8226 leukemia; MALME-3M melanoma; HOP-62 NSCLC; SR leukemia; NCI-H460 lung; HOP-92 NSCLC; UACC-257 melanoma; SNB-19 CNS.
What all share (experiment): growth of human tumour cells (NCI), 48 h

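Tested at 5 concentrations; 48 h exposure; 96-well plates; endpoints linearly interpolated, else capped at highest concentration. Here, GI50 denotes the concentration required for 50% inhibition of growth. The concentration for full growth arrest is given as TGI.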

Take `COc1cccc(C2c3cc4c(cc3OC(O)(CO)C2C(=O)O)OCO4)c1` (centres undefined) (tested in a mixture with another compound): the TGI in the assay on 786-0 renal, in the assay with SF-539 CNS, with RPMI-8226 leukemia, with MALME-3M melanoma, in the assay with HOP-62 NSCLC and in the assay with SR leukemia was over 100 µM each time. Further, the figures for the TGI with NCI-H460 lung, in the assay on HOP-92 NSCLC and in the assay with UACC-257 melanoma were 49 µM, 79.9 µM and over 100 µM, respectively.

In the case of `CCCCCCCCCCCC[n+]1ccc(CCCCCCCCC)cc1`, the GI50 with 786-0 renal is 1.38 µM; with HOP-62 NSCLC, 1.41 µM; in the assay on SR leukemia it was 1.47 µM; with HOP-92 NSCLC, 0.0968 µM. The TGI amounted to 3.07 µM with 786-0 renal, 2.9 µM in the assay with HOP-62 NSCLC, 4.55 µM in the assay with SR leukemia and 0.944 µM with HOP-92 NSCLC.

Consider `O=C1/C(=C/c2ccc(O)cc2)COc2ccc(-c3ccccc3)cc21`, for which the GI50 in the assay with 786-0 renal is 12 µM; in the assay on SNB-19 CNS, 15.7 µM; in the assay on SF-539 CNS, 13.9 µM; in the assay with RPMI-8226 leukemia it was 1.4 µM; with MALME-3M melanoma, 8.38 µM; in the assay on HOP-62 NSCLC, 19.3 µM. The figures for the GI50 in the assay on SR leukemia, in the assay on NCI-H460 lung and in the assay with HOP-92 NSCLC were 1.63 µM, 3.73 µM and 7.63 µM, respectively. Moreover, the TGI with 786-0 renal was determined as 32.3 µM; in the assay on SNB-19 CNS, 37.3 µM; in the assay with SF-539 CNS, 27 µM; with RPMI-8226 leukemia it was 7.68 µM; in the assay on MALME-3M melanoma, 30.6 µM; with HOP-62 NSCLC, 36.4 µM. The values for the TGI in the assay on SR leukemia, in the assay with NCI-H460 lung and with HOP-92 NSCLC were over 28.4 µM, 15.8 µM and 31 µM, respectively.

Turning to `CN(CCOc1ccc(C#N)cc1)CCOc1ccc(C#N)cc1`, the GI50 with 786-0 renal was over 100 µM; in the assay on SNB-19 CNS it was over 100 µM; in the assay with SF-539 CNS, over 100 µM; with RPMI-8226 leukemia, 7.39 µM; in the assay on MALME-3M melanoma, over 100 µM; in the assay with HOP-62 NSCLC, over 100 µM. Further, the GI50 in the assay on SR leukemia was 5.21 µM; with NCI-H460 lung it was over 100 µM; with UACC-257 melanoma it was 28.9 µM. Moreover, the TGI with 786-0 renal, with SNB-19 CNS, in the assay on SF-539 CNS, in the assay with RPMI-8226 leukemia, in the assay with MALME-3M melanoma and in the assay on HOP-62 NSCLC was over 100 µM each time. The TGI in the assay with SR leukemia is 61 µM; in the assay on NCI-H460 lung, over 100 µM; in the assay with UACC-257 melanoma, over 100 µM.

For the molecule `CC1=C(O)C(=O)C2C(=O)C1C(C)C2c1ccc(Cl)cc1` (centres undefined), the TGI in the assay with 786-0 renal, in the assay with SNB-19 CNS, in the assay on SF-539 CNS, in the assay on RPMI-8226 leukemia, in the assay with MALME-3M melanoma and in the assay on HOP-62 NSCLC was over 100 µM in each case. The TGI in the assay with SR leukemia and in the assay with HOP-92 NSCLC was over 100 µM each time.

`CC(=O)n1c2ccccc2c2nc3nc(Oc4ccc(C)cc4)c4ccccc4c3cc21`: the TGI with 786-0 renal, with SNB-19 CNS, in the assay on SF-539 CNS, in the assay with RPMI-8226 leukemia, with MALME-3M melanoma and in the assay with HOP-62 NSCLC was over 100 µM each time. Besides, the TGI in the assay on SR leukemia, with NCI-H460 lung and in the assay on UACC-257 melanoma was over 100 µM each time.

Turning to `Fc1ccc2[nH]c3c(NCCCN4CCOCC4)ncnc3c2c1`, the GI50 with 786-0 renal was over 100 µM; with SNB-19 CNS, over 100 µM; in the assay on SF-539 CNS, 21.3 µM; with RPMI-8226 leukemia, 31.4 µM; in the assay on MALME-3M melanoma, 27.4 µM; in the assay on HOP-62 NSCLC, 42.8 µM. Besides, the GI50 was 28.8 µM in the assay with SR leukemia, 38.5 µM in the assay with NCI-H460 lung and 13.5 µM in the assay on HOP-92 NSCLC. For the same molecule, the TGI in the assay on 786-0 renal is over 100 µM; with SNB-19 CNS it was over 100 µM; in the assay with SF-539 CNS, 62.7 µM; in the assay on RPMI-8226 leukemia, over 100 µM; with MALME-3M melanoma, 89.1 µM; in the assay with HOP-62 NSCLC it was over 100 µM. Further, the results for the TGI in the assay with SR leukemia, in the assay with NCI-H460 lung and with HOP-92 NSCLC were over 100 µM, over 100 µM and 84.1 µM, respectively.

For the molecule `CC/C=C\C/C=C\C/C=C\CCCCCCCC(=O)OCC`, the TGI in the assay with 786-0 renal, with SF-539 CNS, in the assay with RPMI-8226 leukemia, in the assay on MALME-3M melanoma, in the assay on HOP-62 NSCLC and in the assay on SR leukemia was over 100 µM in each case. For the same molecule, the TGI in the assay on HOP-92 NSCLC and in the assay on UACC-257 melanoma was over 100 µM each time.

In the case of `CSc1nc2c(nc(N)n2C2OCC(O)C(O)C2O)c(=O)n1C` (centres undefined), the TGI in the assay on 786-0 renal, in the assay with SNB-19 CNS, with SF-539 CNS, with MALME-3M melanoma, with HOP-62 NSCLC and with SR leukemia was over 100 µM each time. Moreover, the TGI with NCI-H460 lung, with HOP-92 NSCLC and in the assay with UACC-257 melanoma was over 100 µM throughout.

On to `CC(C)NC(=O)OCCS(=O)c1c(Cl)c(Cl)nn1C` (centres undefined), for which the TGI was 72.6 µM in the assay with 786-0 renal; over 100 µM in the assay with SNB-19 CNS; over 100 µM with SF-539 CNS; over 100 µM in the assay on RPMI-8226 leukemia; over 100 µM in the assay on HOP-62 NSCLC; over 100 µM with SR leukemia. Further, the TGI with NCI-H460 lung is over 100 µM.

Regarding `COc1ccc(NC(=O)c2cc(OC)c(OC)c(OC)c2)cc1`, the TGI in the assay with 786-0 renal was over 100 µM; in the assay with SNB-19 CNS, over 100 µM; in the assay with SF-539 CNS, over 100 µM; in the assay with RPMI-8226 leukemia it was over 100 µM; with MALME-3M melanoma it was 97.7 µM; in the assay on HOP-62 NSCLC, 99.7 µM. Besides, the TGI in the assay with NCI-H460 lung, with HOP-92 NSCLC and with UACC-257 melanoma was over 100 µM throughout.

`OCCCCCCOc1ccc(-c2cc(-c3ccccn3)nc(-c3ccccn3)c2)cc1`: the TGI in the assay with 786-0 renal was determined as 0.551 µM; in the assay with SNB-19 CNS, 37.8 µM; in the assay on SF-539 CNS, 1.02 µM; in the assay with RPMI-8226 leukemia, 1.88 µM; in the assay on MALME-3M melanoma it was 9.38 µM; with HOP-62 NSCLC, 1.66 µM. In addition, the TGI was determined as 1.17 µM in the assay with NCI-H460 lung, 14.8 µM with HOP-92 NSCLC and 10.2 µM with UACC-257 melanoma.

`N#C/C(=C\c1cccc(O)c1)C(N)=O`: the TGI in the assay on 786-0 renal, with SNB-19 CNS, in the assay with SF-539 CNS, in the assay with RPMI-8226 leukemia, in the assay on MALME-3M melanoma and with HOP-62 NSCLC was over 100 µM in each case. The TGI in the assay with NCI-H460 lung, in the assay with HOP-92 NSCLC and with UACC-257 melanoma was over 100 µM each time.
